Tests used:
[1] = target: T1, Avi-KRAS G12R (1-169) GppNHp/RAF1 RBD-3xFLAG (52-151) (Homo sapiens, UniProt P01116, G12R); assay: Raf1-KRAS G12R-GppNHP disruption HTRF assay (Biological Example 1); format: binding
T1 construct: Avi-KRAS G12R (1-169)
How it was run: (§1)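 HTRF PPI disruption; buffer 50 mM Tris pH 7.5, 100 mM NaCl, 5 mM MgCl2, 0.1% BSA, 0.01% Tween, 10% DMSO. Protein mix 1 h RT shaking, reagent mix 1 h RT shaking. Data as % activity vs DMSO (100%).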

GP2d cells (KRAS G12D) = assay: Cell-based pERK HTRF assay in GP2d cell (Biological Example 2); conditions: GP2d, GP2d (KRAS G12D) cells, pERK HTRF
How it was run: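 Phospho-ERK is measured by HTRF following a 60 min compound exposure at 0.25% DMSO, with a 9-point half-log curve topping at 1 μM or 100 nM.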

[2] = target: T2, Avi-KRAS WT (1-169) GppNHp/RAF1 RBD-3xFLAG (52-151) (Homo sapiens, UniProt P01116); assay: Raf1-KRAS WT-GppNHP disruption HTRF assay (Biological Example 1); format: binding
T2 construct: Avi-KRAS WT (1-169)
How it was run: as §1

[3] = target: T3, Avi-KRAS G12D (1-169) GppNHp/RAF1 RBD-3xFLAG (52-151) (Homo sapiens, UniProt P01116, G12D); assay: Raf1-KRAS G12D-GppNHP disruption HTRF assay (Biological Example 1); format: binding
T3 construct: Avi-KRAS G12D (1-169)
How it was run: as §1

SW620 cells (KRAS G12V) = assay: Cell-based pERK HTRF assay in SW620 cell (Biological Example 4); conditions: Homo sapiens, SW-620, SW620 (KRAS G12V) cells, pERK HTRF
Protocol: A pERK assay (Perkin Elmer) was used to determine the effectiveness of compounds in disrupting KRAS G12V protein/effector signaling in cells.
On Day 1, cells (SW620) were seeded into 96-well plates at 3×10^4 cells/well in 80 μL complete growth media (RPMI, 10% FBS).
On Day 2, cells were treated with compounds at 0.25% DMSO. The source plate was created with compounds diluted in media at 5-fold the final assay concentration. The compounds were run in a 9-point concentration curve starting at 1 μM, with a half-log dilution between concentrations. Twenty μL was transferred onto the cell plates (final volume in wells was 100 μL). Plates were harvested after 4 h incubation by aspirating media and adding kit-supplied 1x supplemented lysis buffer to all wells (50 μL per well). Plates were then placed on a plate shaker and incubated at 850 rpm for an additional 30 min.
Antibody mixture solution was prepared by diluting aliquoted d2 and Eu Cryptate antibodies 1:20 in kit supplied detection buffer and mixing the diluted antibodies solutions (1:1 v:v).
Samples were homogenized by pipetting up and down and then transferred (16 μL of cell lysates) from the 96-well cell culture plate to two wells of the HTRF 384-well detection plate containing the antibody solution. Plates were centrifuged (524 g for Imin) and allowed to incubate between 4 and 24 h at room temperature. […] Plates were centrifuged again (524 g for 1 min), then analyzed on the En Vision plate reader using the following settings: Excitation 320 nm, Bandwidth 75 nm; Emission 615 nm, Bandwidth 85 nm; Gain 100%; Flashes 100; Lag 60 μs.

[4] = target: T4, Avi-KRAS G12V (1-169) GppNHp/RAF1 RBD-3xFLAG (52-151) (Homo sapiens, UniProt P01116, G12V); assay: Raf1-KRAS G12V-GppNHP disruption HTRF assay (Biological Example 1); format: binding
T4 construct: Avi-KRAS G12V (1-169)
How it was run: as §1

[5] = KRAS G12R, GppNHp-loaded, class symbols
[6] = KRAS WT, GppNHp-loaded, class symbols
[7] = KRAS G12D, GppNHp-loaded, class symbols
[8] = KRAS G12V, GppNHp-loaded, class symbols

T3 sequence (P01116 1-169 isoform P01116-2 G12D): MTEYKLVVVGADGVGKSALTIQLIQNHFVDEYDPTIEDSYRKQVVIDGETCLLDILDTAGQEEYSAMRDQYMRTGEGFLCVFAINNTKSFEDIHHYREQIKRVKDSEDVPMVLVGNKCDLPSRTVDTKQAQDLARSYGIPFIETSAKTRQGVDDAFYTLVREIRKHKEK
T2 sequence (P01116 1-169 isoform P01116-2): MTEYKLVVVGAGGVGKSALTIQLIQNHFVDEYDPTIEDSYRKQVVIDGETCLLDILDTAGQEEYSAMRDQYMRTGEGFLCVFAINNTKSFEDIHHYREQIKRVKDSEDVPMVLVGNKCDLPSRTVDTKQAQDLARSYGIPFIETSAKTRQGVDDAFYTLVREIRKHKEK
T4 sequence (P01116 1-169 isoform P01116-2 G12V): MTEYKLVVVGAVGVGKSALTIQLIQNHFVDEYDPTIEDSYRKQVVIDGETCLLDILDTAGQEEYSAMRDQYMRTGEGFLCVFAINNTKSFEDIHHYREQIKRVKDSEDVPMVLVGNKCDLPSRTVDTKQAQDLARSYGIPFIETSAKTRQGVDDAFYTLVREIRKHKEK
T1 sequence (P01116 1-169 isoform P01116-2 G12R): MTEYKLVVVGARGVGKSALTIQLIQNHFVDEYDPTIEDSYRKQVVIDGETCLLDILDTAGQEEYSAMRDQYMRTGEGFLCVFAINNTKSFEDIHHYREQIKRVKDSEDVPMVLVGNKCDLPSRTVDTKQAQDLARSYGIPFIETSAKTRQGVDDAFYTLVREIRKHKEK

Row | Compound | IC50 ([1]; KRAS G12R-GppNHp/RAF1 RBD HTRF) | IC50 (GP2d cells (KRAS G12D)) | IC50 ([2]; KRAS WT-GppNHp/RAF1 RBD HTRF) | IC50 ([3]; KRAS G12D-GppNHp/RAF1 RBD HTRF) | IC50 (SW620 cells (KRAS G12V)) | IC50 ([4]; KRAS G12V-GppNHp/RAF1 RBD HTRF) | IC50 [1, 5] | IC50 (GP2d cells (KRAS G12D); class symbols) | IC50 [2, 6] | IC50 [3, 7] | IC50 (SW620 cells (KRAS G12V); class symbols) | IC50 [4, 8]
1 | CCC(=O)N1CC[C@](C)(N(C)c2nc(OC[C@@]34CCCN3C[C@H](F)C4)nc3c(F)c(-c4ccc(F)c5sc(N)c(C#N)c45)c(C(F)(F)F)cc23)C1 [Compound 506] | 1000 to 10000 nM | < 100 nM | 1000 to 10000 nM | 100 to 1000 nM | < 100 nM | 1000 to 10000 nM | – | – | – | – | – | –
2 | CCN(c1nc(OC[C@@]23CCCN2C[C@H](F)C3)nc2c(F)c(-c3ccc(F)c4sc(N)c(C#N)c34)c(C(F)(F)F)cc12)[C@H]1CCN(C(=O)N2C[C@@H](F)[C@@H](F)C2)C1 (atropisomer, axis not shown) [Compound 609] | – | – | – | – | – | – | < 100 nM | < 100 nM | < 100 nM | < 100 nM | < 100 nM | < 100 nM
3 | CC(=O)N1C[C@H]2CCCN(c3nc(OC[C@@]45CCCN4C[C@H](F)C5)nc4c(F)c(-c5ccc(F)c6sc(N)c(C#N)c56)c(C(F)(F)F)cc34)[C@H]2C1 [Compound 453] | 1000 to 10000 nM | < 100 nM | 1000 to 10000 nM | 1000 to 10000 nM | < 100 nM | 1000 to 10000 nM | – | – | – | – | – | –
4 | CCN(c1nc(OC[C@@]23CCCN2C[C@H](F)C3)nc2c(F)c(-c3ccc(F)c4sc(N)c(C#N)c34)c(C(F)(F)F)cc12)[C@H]1C[C@H](C)N(C(=O)[C@H](C)OC)C1 (atropisomer, axis not shown) [Compound 739] | – | – | – | – | – | – | < 100 nM | < 100 nM | < 100 nM | < 100 nM | < 100 nM | 100 to 1000 nM
5 | CCN(c1nc(OC[C@H]2C[C@@H](OC)CN2C)nc2c(F)c(-c3ccc(F)c4sc(N)c(C#N)c34)c(C(F)(F)F)cc12)[C@H]1CCN(C(=O)C(C)C)C1 [Compound 592] | – | – | – | – | – | – | 1000 to 10000 nM | < 100 nM | 1000 to 10000 nM | 1000 to 10000 nM | 100 to 1000 nM | 1000 to 10000 nM
6 | N#Cc1c(N)sc2c(F)ccc(-c3c(C(F)(F)F)cc4c(N5CC6COC[C@H]6C5)nc(OC[C@@]56CCCN5C[C@H](F)C6)nc4c3F)c12 (stereo partly drawn) [Compound 293] | 100 to 1000 nM | < 100 nM | 100 to 1000 nM | 100 to 1000 nM | < 100 nM | 1000 to 10000 nM | – | – | – | – | – | –
7 | CCN(c1nc(OC[C@@]23CCCN2C[C@H](F)C3)nc2c(F)c(-c3ccc(F)c4sc(N)c(C#N)c34)c(C(F)(F)F)cc12)[C@H]1CCN(C(=O)c2cnn(C)c2)C1 (atropisomer, axis not shown) [Compound 748] | – | – | – | – | – | – | < 100 nM | < 100 nM | < 100 nM | < 100 nM | < 100 nM | < 100 nM
8 | CCN(c1nc(OC[C@@]23CCCN2C[C@H](F)C3)nc2c(F)c(-c3ccc(F)c4sc(N)c(C#N)c34)c(C(F)(F)F)cc12)[C@H]1CCN(C(=O)OC2COC2)[C@@H]1C (atropisomer, axis not shown) [Compound 809] | – | – | – | – | – | – | < 100 nM | < 100 nM | < 100 nM | < 100 nM | < 100 nM | < 100 nM
9 | N#Cc1c(N)sc2c(F)ccc(-c3c(C(F)(F)F)cc4c(N(C5CC5)[C@H]5CCN(C(=O)[C@H]6CCO6)C5)nc(OC[C@@]56CCCN5C[C@H](F)C6)nc4c3F)c12 (atropisomer, axis not shown) [Compound 812] | – | – | – | – | – | – | 100 to 1000 nM | < 100 nM | 100 to 1000 nM | < 100 nM | < 100 nM | 100 to 1000 nM
10 | CC(=O)N1CCC(N(C)c2nc(OC[C@@]34CCCN3C[C@H](F)C4)nc3c(F)c(-c4ccc(F)c5sc(N)c(C#N)c45)c(C(F)(F)F)cc23)CC1 [Compound 296] | 100 to 1000 nM | < 100 nM | 100 to 1000 nM | 100 to 1000 nM | 100 to 1000 nM | 100 to 1000 nM | – | – | – | – | – | –
